Results as given in article PMC11995724, “Antibiotic target discovery by integrated phenotypic and activity-based profiling of electrophilic fragments” (Cell chemical biology, 2025).
Structures can show the parent of a compound that is named as a salt.

Experiment: in vitro
Conditions: human, hek293t cells

SMILES	viability at 48 h, 25 µM [%]
O=C(CCl)Nc1cccc(S(=O)(=O)NC2=NCCCCC2)c1 [4-D08, N-{3-[(azepan-2-ylidene)sulfamoyl]phenyl}-2-chloroacetamide]	1.32
C=CC(=O)N(CCO)c1ccc(C(=O)O)cc1 [1-M10, 4-[N-(2-hydroxyethyl)prop-2-enamido]benzoic acid]	96.4
COc1ccc(C=C(C#N)C(=O)Nc2ccc(Cl)c(Cl)c2)cc1 [8-C03, 2-cyano-N-(3,4-dichlorophenyl)-3-(4-methoxyphenyl)prop-2-enamide]	99.6
COC(=O)c1c(C)[nH]c(C(=O)C(C)Cl)c1C (stereo not drawn) [10-D22, methyl 5-(2-chloropropanoyl)-2,4-dimethyl-1H-pyrrole-3-carboxylate]	83.7
CN(C)CCN1C(=O)C=CC1=O [10-G11, 1-[2-(dimethylamino)ethyl]-2,5-dihydro-1H-pyrrole-2,5-dione]	96.9
COc1ccc(S(=O)(=O)N2CCSSCC2)cc1C [10-D11, 5-(4-methoxy-3-methylbenzenesulfonyl)-1,2,5-dithiazepane]	105
O=C(CCl)N1N=C(c2ccc3ccccc3c2)CC1c1ccccc1 (stereo not drawn) [4-K22, 2-chloro-1-[3-(naphthalen-2-yl)-5-phenyl-4,5-dihydro-1H-pyrazol-1-yl]ethan-1-one]	-0.201
O=C(CCl)Cc1cccc(Cl)c1 [10-E17, 1-chloro-3-(3-chlorophenyl)propan-2-one]	1.29
CC(Cl)C(=O)Nc1ccccc1 (stereo not drawn) [5-F10, 2-chloro-N-phenylpropanamide]	91.9
CC(C)NC(=O)C(C#N)=Cc1cccc(O)c1 [8-A22, 2-cyano-3-(3-hydroxyphenyl)-N-(propan-2-yl)prop-2-enamide]	67.3
CC(O)=C(C#N)C(=O)Nc1ccc(-c2ccccc2Cl)c(Cl)c1 [9-L22, 2-cyano-N-{2,2'-dichloro-[1,1'-biphenyl]-4-yl}-3-hydroxybut-2-enamide]	117
C[C@@H](NC(=O)CCl)c1ccc(F)cc1 [6-G21, 2-chloro-N-[(1R)-1-(4-fluorophenyl)ethyl]acetamide]	129
C=CC(=O)N1CCn2c(nnc2C2CCCC2)C1 [3-C09, 1-{3-cyclopentyl-5H,6H,7H,8H-[1,2,4]triazolo[4,3-a]pyrazin-7-yl}prop-2-en-1-one]	29.4
C=CC(=O)NC(Cc1ccccc1)c1ccccn1 (stereo not drawn) [2-K14, N-[2-phenyl-1-(pyridin-2-yl)ethyl]prop-2-enamide]	113
COc1cc(NC(=O)C(C)Cl)cc(OC)c1 (stereo not drawn) [4-I04, 2-chloro-N-(3,5-dimethoxyphenyl)propanamide]	81.7
C=CC(=O)N(C)CC(=O)NC(C)(C)c1nc(C)cs1 [3-E14, N-methyl-N-({[2-(4-methyl-1,3-thiazol-2-yl)propan-2-yl]carbamoyl}methyl)prop-2-enamide]	87.9
C=CC(=O)N1CCC(c2nc(C)no2)CC1 [3-E05, 1-[4-(3-methyl-1,2,4-oxadiazol-5-yl)piperidin-1-yl]prop-2-en-1-one]	49.7
C=CC(=O)N1CCC(C(=O)Nc2[nH]nc(C(F)(F)F)c2C)CC1 [1-O04, N-[4-methyl-3-(trifluoromethyl)-1H-pyrazol-5-yl]-1-(prop-2-enoyl)piperidine-4-carboxamide]	113
CCCCNC(=O)C(C#N)=Cc1c[nH]nn1 [9-L04, N-butyl-2-cyano-3-(1H-1,2,3-triazol-4-yl)prop-2-enamide]	116
Cc1cc(C(=O)CCl)c(C)n1CCc1cccs1 [10-F16, 2-chloro-1-{2,5-dimethyl-1-[2-(thiophen-2-yl)ethyl]-1H-pyrrol-3-yl}ethan-1-one]	0.304
C=CC(=O)NCCc1nc(C)cs1 [2-D05, N-[2-(4-methyl-1,3-thiazol-2-yl)ethyl]prop-2-enamide]	70.3
COc1ccc(Cl)cc1NC(=O)C(C)Cl (stereo not drawn) [6-G16, 2-chloro-N-(5-chloro-2-methoxyphenyl)propanamide]	112
C=CC(=O)N1CCOC(c2nc(C)cs2)C1 (stereo not drawn) [3-A17, 1-[2-(4-methyl-1,3-thiazol-2-yl)morpholin-4-yl]prop-2-en-1-one]	26.2
C=CC(=O)N1CCCC1(COC)C(N)=O (stereo not drawn) [3-K07, 2-(methoxymethyl)-1-(prop-2-enoyl)pyrrolidine-2-carboxamide]	143
C=CC(=O)N1CCC(C(=O)N[C@H]2CC[C@@H](CC#N)C2)CC1 (racemic) [2-G21, rac-N-[(1R,3S)-3-(cyanomethyl)cyclopentyl]-1-(prop-2-enoyl)piperidine-4-carboxamide]	71.9
C=CC(=O)N1CC[C@H](Oc2ccc(F)cc2)C1 [2-A15, 1-[(3S)-3-(4-fluorophenoxy)pyrrolidin-1-yl]prop-2-en-1-one]	185
C=CC(=O)Nc1ncnc2c1cnn2Cc1cccc(C)c1 [1-M21, N-{1-[(3-methylphenyl)methyl]-1H-pyrazolo[3,4-d]pyrimidin-4-yl}prop-2-enamide]	100

SMILES	viability at 48 h, 25 µM [%]
C=CC(=O)N1CCC(C(=O)N(C)C2CCCc3c2cnn3C)CC1 (stereo not drawn) [2-P12, N-methyl-N-(1-methyl-4,5,6,7-tetrahydro-1H-indazol-4-yl)-1-(prop-2-enoyl)piperidine-4-carboxamide]	78.2
COc1cccc(NC(=O)CN(C)C(=O)CCl)c1 [5-A03, 2-chloro-N-{[(3-methoxyphenyl)carbamoyl]methyl}-N-methylacetamide]	0.139
C=CC(=O)N1CCC(C(=O)NCC2([S+](C)[O-])CCC2)CC1 (stereo not drawn) [2-D18, N-[(1-methanesulfinylcyclobutyl)methyl]-1-(prop-2-enoyl)piperidine-4-carboxamide]	73.4
O=C(CCl)c1ccncc1F [10-I09, 2-chloro-1-(3-fluoropyridin-4-yl)ethan-1-one hydrochloride]	85
CCCCNC(=O)C(C#N)=Cc1ccc(Cl)cc1 [9-H13, N-butyl-3-(4-chlorophenyl)-2-cyanoprop-2-enamide]	72.9
CC(Cl)C(=O)NCc1nc(C2CC2)n[nH]1 (stereo not drawn) [7-L19, 2-chloro-N-[(3-cyclopropyl-1H-1,2,4-triazol-5-yl)methyl]propanamide]	91.3
C=CC(=O)Nc1c(C)cnn1CC1CC1 [1-M19, N-[1-(cyclopropylmethyl)-4-methyl-1H-pyrazol-5-yl]prop-2-enamide]	94.9
C=CC(=O)N1CCCC1c1cccc(C)c1 (stereo not drawn) [1-N11, 1-[2-(3-methylphenyl)pyrrolidin-1-yl]prop-2-en-1-one]	110
CSc1ccc(C=C(C#N)C(=O)Nc2cccc(Cl)c2C)cc1 [8-N11, N-(3-chloro-2-methylphenyl)-2-cyano-3-[4-(methylsulfanyl)phenyl]prop-2-enamide]	103
CC(Cl)C(=O)Nc1ccc(Cl)c(C(F)(F)F)c1 (stereo not drawn) [4-C12, 2-chloro-N-[4-chloro-3-(trifluoromethyl)phenyl]propanamide]	51
COc1ccccc1C(NC(=O)C(C)Cl)c1ccco1 (stereo not drawn) [5-H19, 2-chloro-N-[(furan-2-yl)(2-methoxyphenyl)methyl]propanamide]	120
O=C(CCl)Nc1nc(-c2cc(F)ccc2F)cs1 [4-L22, 2-chloro-N-[4-(2,5-difluorophenyl)-1,3-thiazol-2-yl]acetamide]	0.065
COc1ccc(C2CCCN2C(=O)CCl)cc1OC (stereo not drawn) [6-M03, 2-chloro-1-[2-(3,4-dimethoxyphenyl)pyrrolidin-1-yl]ethan-1-one]	0.75
CNC(=O)C(C#N)=Cc1cccc(-c2ccncc2)c1 [9-L14, 2-cyano-N-methyl-3-[3-(pyridin-4-yl)phenyl]prop-2-enamide]	108
O=C(CCl)Nc1cccc(NC(=O)c2ccccc2)c1 [6-A03, N-[3-(2-chloroacetamido)phenyl]benzamide]	-0.0459
C=CCNC(=O)C(C#N)=Cc1sccc1C [9-P07, 2-cyano-3-(3-methylthiophen-2-yl)-N-(prop-2-en-1-yl)prop-2-enamide]	117
Cc1ccc2sc(N(Cc3ccccc3)C(=O)CCl)nc2c1C [4-K06, N-benzyl-2-chloro-N-(4,5-dimethyl-1,3-benzothiazol-2-yl)acetamide]	-0.0749
C=CC(=O)NCc1ccccc1N1CCCC(C(N)=O)C1 (stereo not drawn) [3-L21, 1-{2-[(prop-2-enamido)methyl]phenyl}piperidine-3-carboxamide]	68.9
CC(Cl)C(=O)N1CC(Oc2ccc(C#N)cc2)C1 (stereo not drawn) [6-J15, 4-{[1-(2-chloropropanoyl)azetidin-3-yl]oxy}benzonitrile]	97.1
N#CC(=Cc1ccccc1)C(=O)Nc1ccccc1F [8-C13, 2-cyano-N-(2-fluorophenyl)-3-phenylprop-2-enamide]	69.6
C=CC(=O)N(C)[C@H]1CS(=O)(=O)C[C@@H]1O (racemic) [3-C15, rac-N-[(3R,4R)-4-hydroxy-1,1-dioxo-1lambda6-thiolan-3-yl]-N-methylprop-2-enamide]	46
COc1ccc2cc(C=C(C#N)C(=O)Nc3nccs3)ccc2c1 [9-E08, 2-cyano-3-(6-methoxynaphthalen-2-yl)-N-(1,3-thiazol-2-yl)prop-2-enamide]	63.3
Cc1cc(C2CCCN2C(=O)C(C)Cl)no1 (stereo not drawn) [7-D19, 2-chloro-1-[2-(5-methyl-1,2-oxazol-3-yl)pyrrolidin-1-yl]propan-1-one]	88.5
CC(C)NS(=O)(=O)c1ccc(NC(=O)C(C)Cl)cc1 (stereo not drawn) [6-B10, 2-chloro-N-{4-[(propan-2-yl)sulfamoyl]phenyl}propanamide]	98.5
CC(Cl)C(=O)N1CCCN2c3ccccc3CC2C1 (stereo not drawn) [7-G06, 1-{1H,2H,3H,4H,5H,11H,11aH-[1,4]diazepino[1,2-a]indol-2-yl}-2-chloropropan-1-one]	96.3
C=CC(=O)Nc1ccc(C(=O)NC2CCN(C(C)C)C2=O)cc1 (stereo not drawn) [3-C10, N-[2-oxo-1-(propan-2-yl)pyrrolidin-3-yl]-4-(prop-2-enamido)benzamide]	60.6
CC(C)NC(=O)C(C#N)=Cc1cccs1 [8-H15, 2-cyano-N-(propan-2-yl)-3-(thiophen-2-yl)prop-2-enamide]	117
